Data on five compounds can be found in ChEMBL document CHEMBL1158212, “Squamotacin: an annonaceous acetogenin with cytotoxic selectivity for the human prostate tumor cell line (PC-3)” (J Nat Prod, 1996).

Values after ≈ are worked out from the molar mass of the structure shown.

The subject of one data set is A549. The data set can be described thus: Cytotoxicity against human A549 cells. As to conditions: for EC50: Homo sapiens, A549, read-out: ED50 (the source's name). The data set is classed as functional.
The subject of the next data set is MCF7. The data set can be described thus: Cytotoxicity against human MCF7 cells. The class given is functional. As to conditions: read-out: ED50 (the source's name).
A further data set deals with A498. The data set can be described thus: Cytotoxicity against human A498 cells. The class given is functional. The settings on record: for EC50: Homo sapiens, A498, read-out: ED50 (the source's name).
The test system of a further data set is HT-29. The data set can be described thus: Cytotoxicity against human HT29 cells. The data set is classed as functional. The settings on record: read-out: ED50 (the source's name).
Data set [1] can be described thus: (§1) Toxicity in Artemia salina. The class given is organism-based. The settings on record: in vivo.
The nature of data set [2]: Cytotoxicity against human PC3 cells. The class given is cell-based, PC-3. The settings on record: read-out: ED50 (the source's name).
Another data set deals with MIA PaCa-2. Briefly: Cytotoxicity against human MIAPaCa2 cells. The data set is classed as functional. As to conditions: for EC50: Homo sapiens, MIA PaCa-2, read-out: ED50 (the source's name).
The next data set deals with Artemia salina. The data set is described as §1. The class given is organism-based. The settings on record: in vivo.

`CCCCCCCCCC[C@@H](O)[C@@H]1CC[C@@H]([C@@H]2CC[C@@H]([C@H](O)CCCCCCCCCC(O)CC3=CC(C)OC3=O)O2)O1` (stereo not given in full) [BULLATACIN]: the figures for the ED50 with A549 and in the data set with A498 were 2.44 ×10⁻⁶ ug/ml and 4.85 ×10⁻⁵ ug/ml, respectively. Also, the EC50 was 696 ng/mL (≈ 1140 nM) with MCF7 and more than 1000 ng/mL in the data set with HT-29.

Compound `CCCCCCCCCC[C@H](O)[C@H]1CC[C@H]([C@H]2CC[C@H]([C@H](O)CCCCCCCCCC[C@@H](O)CC3=C[C@H](C)OC3=O)O2)O1` [BULLATACIN] registered an LC50 in data set [1] of 1.59 ng/mL (≈ 2.55 nM). Further, the CC50 in data set [2] was 1e-06 ng/mL (≈ 1.61e-06 nM).

`COc1cccc2c1C(=O)c1c(O)c3c(c(O)c1C2=O)C[C@@](O)(C(=O)CO)C[C@@H]3O[C@H]1C[C@H](N)[C@H](O)[C@H](C)O1` [DOXORUBICIN]: the EC50 with A549 was found to be 28.4 ng/mL (≈ 52.3 nM); in the data set on MCF7, 347 ng/mL (≈ 638 nM); in the data set on MIA PaCa-2 it was 3.17 ng/mL (≈ 5.83 nM); with A498, 24.9 ng/mL (≈ 45.8 nM); with HT-29, 41.6 ng/mL (≈ 76.5 nM). This compound also gave an LC50 in data set [1] of 257 ng/mL (≈ 473 nM). In addition, the CC50 in data set [2] turned out to be 342 ng/mL (≈ 629 nM).

As to `CCCCCCCCCC[C@H](O)[C@H]1CC[C@H]([C@H]2CC[C@H]([C@H](O)CCCCCCCC[C@@H](O)CC3=C[C@H](C)OC3=O)O2)O1` [MOLVIZARIN], the EC50 in the data set on A549 was 63 ng/mL (≈ 106 nM); in the data set on MCF7, more than 1000 ng/mL; with MIA PaCa-2, 7.66 ng/mL (≈ 12.9 nM); with A498, 709 ng/mL (≈ 1190 nM); in the data set with HT-29, 7.32 ng/mL (≈ 12.3 nM). Also, the LC50 in the data set with Artemia salina is listed as 5.26 ×10⁻² ug/ml.

As to `CCCCCCCCCCCC[C@H](O)[C@H]1CC[C@H]([C@H]2CC[C@H]([C@H](O)CCCCCCCC[C@@H](O)CC3=C[C@H](C)OC3=O)O2)O1` [SQUAMOTACIN], the EC50 was 27.7 ng/mL (≈ 44.5 nM) in the data set with A549, more than 1000 ng/mL in the data set on MCF7, more than 1000 ng/mL in the data set with A498 and 1 ng/mL (≈ 1.61 nM) in the data set on HT-29. The same compound had an LC50 in data set [1] of 6.8 ng/mL (≈ 10.9 nM). The ED50 in the data set on MIA PaCa-2 is reported as 1.33 ×10⁻⁴ ug/ml.
